The source of these data is US7902327B2, “Dendrimeric peptides, pharmaceutical compositions and methods of using the same” (New York University School of Medicine, priority 2007, dated 2011).

One may read the IC50 as the midpoint of a concentration-inhibition curve. Higher therefore signals weaker potency.

One data set relates to E. coli (RP437) biofilm. Briefly: biofilm formation in 96 well plates, crystal violet. The format is cell-based. The settings on record: 24 hours. The source says: The effect of dendrimers of the invention on E. coli biofilm formation was further examined and measured. The development of a bacterial biofilm allows for the bacteria to become more antibiotic resistant. […] Assay summary: E. coli (RP437) was used to form biofilms in 96 well plates with and without different concentrations of peptides.

Another data set deals with trypsin. The note with it: trypsin at high concentration, various time intervals up to 24 hrs.
The nature of data set [1]: antibacterial activity under physiological conditions (90% human serum). In kind it is cell-based. The procedure:
In a further experiment, antibacterial activity under physiological conditions was tested. The MIC50 was determined in the presence of 90% human serum, respectively.

In data set [2] the test system is gram-negative E. coli (D31). The note with it: over 250 generations.
The subject of data set [3] is Multidrug-resistant gram-positive S. aureus. The settings on record: over 250 generations.
Data set [4] concerns three other gram-positive bacteria.
In the next data set the test system is gram-positive MRSA. Briefly: LIVE/DEAD staining assay, membrane damage. In kind it is cell-based. The note with it: 1 hr incubation; (RW)4D 10 uM.
The test system of data set [5] is gram-negative A. baumannii. Description: LIVE/DEAD staining assay, membrane damage. In kind it is cell-based. The settings on record: 1 hr incubation; (RW)4D 10 uM.
Another data set concerns E. faecalis (29212). The note with it: 29212.
For another data set, the system named is B. Subtilis (ATCC 6633). The note with it: ATCC 6633.
Data set [6] has as its system B. anthracis (32F2 Sterne).
The test system of data set [7] is ampicillin- and streptomycin-resistant E. coli (D31).
For data set [8], the system named is multi-drug resistant MRSA gram-positive bacteria. Briefly: killing of multi-drug resistant bacteria, one hour contact. The format is cell-based.
Data set [9] in a line: dye leakage assay (calcein). The note with it: POPG vesicles. The text has this: To confirm that the multivalent AMPs interact with and disrupt phospholipid bilayers, we measured the ability of dendrimer (RW)4D to induce leakage of calcein, entrapped within the interior of large unilamellar vesicles of model membrane POPG (1-Palmitoyl-2-Oleoyl-sn-Glycero-3-[Phospho-rac-(1-glycerol)]) with negatively charged head group. The leakage of vesicle contents to the AMPs was monitored by the release of calcein encapsulated in large unilamellar vesicles. The method of preparation of dye-encapsulated vesicles has been reported in detail (Torchilin and Weissig 2003). In short, large unilamellar POPG vesicles were prepared by reverse-phase evaporation. After evaporating the organic solvent, residue were hydrated with the calcein solution (100 mM) in buffer (10 mM Tris-HCl pH 7.4). The free calcein was removed by eluting through a Sephadex G-50 size-exclusion column in the same buffer. The leakage process was monitored by following the increase of calcein fluorescence intensity at 515 nm (excitation at 490 nm) after 20 μL of AMPs at different concentrations were added to 10 μL of vesicle solution mixed in 2 mL of TBS buffer. Complete leakage was achieved by addition of 100 uL of 20% Triton X-100 to the 2 ml solution, and the corresponding fluorescence intensity was used as 100% leakage for the calculation of leakage fraction.

For another data set, the system named is Acineto Baumannii. Description: killing and growth inhibition of Acineto Baumannii. In kind it is cell-based.
The format of data set [10] is cell-based, mouse. The procedure: The cells were grown in 96 well plates and a 100 μl aliquot of a three fold serial dilution of the peptides was dispensed into each well. Buffer alone was used as the positive control and H2O2 was used as the negative control. MTS […] was added to each well prior to incubation to visualize the cells. The cells were incubated for 24 hours and their absorbance were measured at λ=495 nm.

In data set [11] the test system is multi-drug resistant strain S. aureus.
Data set [12] concerns E. coli(D31) gram-negative bacteria. Description: killing of multi-drug resistant bacteria, one hour contact. In kind it is cell-based.
Another data set concerns E. coli RP437 biofilm. Description: two-day biofilm on stainless steel coupons, Live/Dead staining. In kind it is cell-based. The note with it: 25 μg/mL, 48 hours. The procedure:
E. coli biofilm inhibition by (RW)4D was also studied on stainless steel coupons. Microscope images were taken after staining the two-day biofilms with Live/Dead staining solution. […] Assay summary: E. coli RP437 was used to form biofilms in a plastic dish with stainless steel coupons and different concentrations of peptides. After 48 hours incubation, coupon was soaked in NaCl buffer containing staining component in the dark for 15 mins.

Data set [13] relates to E. coli RP437 biofilms. Description: CFU assay of biofilm inhibition. In kind it is cell-based. The note with it: 25 μg/mL, 24 hours. The procedure:
Twenty-four hour biofilms of E. coli RP437 were grown on stainless steel coupons in LB medium containing up to 100 μg/mL of the three antimicrobial peptides—dendrimer, hexamer, and octamer. CFU counts were used to determine the extent of inhibition. The procedure of the study is as follows.
Overnight cultures of E. coli RP437 grown in LB medium were used to inoculate 5 mL of LB supplemented with up to 100 μg/mL of each peptide and polished, sterile 316L stainless steel coupons (1.2 cm×0.6 cm×0.1 cm). The cultures were incubated at 37° C. for 24 hours. The coupons were then removed from the bacterial culture using sterile forceps and washed three times in 0.85% NaCl buffer and placed in round-bottom tubes containing 3 mL of fresh NaCl buffer. These were then sonicated for 1.5 minutes in a water bath. The NaCl buffer containing bacterial cells was serially diluted and 60 μL of 1000 and 5000 fold dilutions were plated on LB agar plates. The plates were incubated at 37° C. overnight. The number of CFUs for each sample was counted after incubation. The experiment was conducted in duplicate.

The test system of data set [14] is E. coli RP437 biofilms. Description: biofilm assay on stainless steel coupons with LIVE/DEAD staining. The settings on record: for Biofilm coefficients: Dead cells / Biofilm coefficients: Live cells / Biofilm coefficients: Total biofilms: 24 hours. In kind it is cell-based. As for the experimental part:
The stainless steel (S.S.) coupons were polished using a fine 3M SandBlaster sandpaper, then autoclaved for sterilization. […] For all the treatments, duplicate coupons were tested. To analyze the E. coli biofilms using fluorescence microscopy, the biofilms were stained with […] bacterial viability kit (Cat# L7012, Invitrogen Corporation, California). Each S.S. coupon was washed gently by dipping vertically in 0.85% NaCl buffer three times (change to fresh buffer after each dipping). Then, they were soaked in 1 mL of 0.85% NaCl buffer containing 3 μl of staining component A and B (1:4) in the dark for 15 mins. Images were taken by AXIO Imager.M1 (Carl Zeiss, German). Five images were taken for each sample. Data were obtained and are presented in Table 3, below, as well as in FIG. 5.

The test system of another data set is fresh sheep erythrocytes. Briefly: hemolytic assay. The format is cell-based. The note with it: sheep erythrocytes, 37° C., 30 minutes. As for the experimental part:
Hemolytic activity of model peptides was assessed on fresh sheep erythrocytes (Fitzgerald Inc., Concord, Mass.). […] The resulting supernatant was diluted by a factor of 40 in distilled water. The absorbances of the supernatant at λ=540 nm (OD540) were measured in the UV Spectrophotometer. […] Hemolytic index (HI) was defined as HI═HD50/IC50.

Setting [15] is: mean over no, low and high salt.

In brackets after ≈: the same amount, converted by molar mass. Like-named read-outs stand apart in the source and are kept apart here. Where a SMILES comes first, the peptide text is derived from it. Side-chain parts run from the residue outwards. [ ]: non-standard residue; d: D form. The star is where a group is joined. Lys(α,ε-(ArgTrp)2) = N=C(N)NCCC[C@H](N)C(=O)N[C@@H](Cc1c[nH]c2ccccc12)C(=O)NCCCC[C@H](NC(=O)[C@H](Cc1c[nH]c2ccccc12)NC(=O)[C@@H](N)CCCNC(=N)N)C(=O)*; βAla = NCCC(=O)O

`N=C(N)NCCC[C@H](N)C(=O)N[C@@H](Cc1c[nH]c2ccccc12)C(=O)NCCCC[C@H](NC(=O)[C@H](Cc1c[nH]c2ccccc12)NC(=O)[C@@H](N)CCCNC(=N)N)C(=O)NCCCC[C@H](NC(=O)[C@H](CCCCNC(=O)[C@H](Cc1c[nH]c2ccccc12)NC(=O)[C@@H](N)CCCNC(=N)N)NC(=O)[C@H](Cc1c[nH]c2ccccc12)NC(=O)[C@@H](N)CCCNC(=N)N)C(=O)NCCC(N)=O` [Den(RW)4D] (H-RWK([Trp-Arg])K(Lys(α,ε-(ArgTrp)2))[βAla]-NH2): the “inhibition of biofilm formation” value in the data set with E. coli (RP437) biofilm is on record as “exhibited inhibition of E. coli biofilm formation”. The “inactivation of antibacterial activity by trypsin” value in the data set on trypsin is “resistant to inactivation by trypsin”. In [1], the “antimicrobial activity in the presence of human serum” value is on record as “human serum cannot completely block the antimicrobial activity”. In addition, the “development of resistance (MIC90)” value in data set [2] and in data set [3] was “did not show resistance” in each case. The “mean MIC50 against all test organisms” value in data set [4] (three gram-positive bacteria) stood at 7.4 µg/mL. Further, the “membrane damage / killing by Live/Dead staining” value (in the data set on gram-positive MRSA; in [5]) was “show damaged membranes” each time. Besides, the “MIC50 E. faecalis” value with E. faecalis (29212) was 5.5 µg/mL (≈ 2.99 µM). The “MIC50 B. subtilis” value in the data set with B. Subtilis (ATCC 6633) was 3.5 µg/mL (≈ 1.9 µM). Moreover, the “MIC50 B. anthracis” value in data set [6] is 13 µg/mL (≈ 7.06 µM). Also, the “increase in MIC50 value from no salt to high-salt condition” value in data set [7] is listed as 50%. In addition, the “MIC50 E. coli” value in data set [7] (0 mM NaCl) was found to be 3.0 µg/mL (≈ 1.63 µM); in data set [7] (75 mM NaCl), 3.9 µg/mL (≈ 2.12 µM); in data set [7] (150 mM NaCl) it was 4.5 µg/mL (≈ 2.44 µM). Moreover, the “mean MIC50 against E. coli” value in [7] (setting [15]) is 3.8 µg/mL. The “decrease in bacteria remaining after contact” value in data set [8] and in data set [12] was 3 log throughout. In addition, the “concentration at which peptide caused 50% dye leakage” value in data set [9] was 0.5 µg/mL. Also, the “killing and growth inhibition” value with Acineto Baumannii is “can kill the bacteria and inhibit its growth at very low concentration”. For the same compound, the IC50 in data set [10] was around 1380 µg/mL (≈ 750 µM). Further, the “MIC50 S. aureus” value in [11] (0 mM NaCl) was 10 µg/mL (≈ 5.43 µM); in [11] (75 mM NaCl), 15 µg/mL (≈ 8.14 µM); in [11] (150 mM NaCl) it was 16 µg/mL (≈ 8.69 µM). The “mean MIC50 against S. aureus” value in data set [11] (setting [15]) came to 13.6 µg/mL. Moreover, the “total biofilm formation on stainless steel coupons compared with blank control” value in the data set on E. coli RP437 biofilm is reported as “significantly reduced”.

As to `N=C(N)NCCC[C@H](N)C(=O)N[C@@H](Cc1c[nH]c2ccccc12)C(=O)NCCCC[C@H](NC(=O)[C@H](Cc1c[nH]c2ccccc12)NC(=O)[C@@H](N)CCCNC(=N)N)C(=O)NCCCC[C@H](NC(=O)[C@H](CCCCNC(=O)[C@H](Cc1c[nH]c2ccccc12)NC(=O)[C@@H](N)CCCNC(=N)N)NC(=O)[C@H](Cc1c[nH]c2ccccc12)NC(=O)[C@@H](N)CCCNC(=N)N)C(=O)NCCC(N)=O` [Dendrimer] (H-RWK([Trp-Arg])K(Lys(α,ε-(ArgTrp)2))[βAla]-NH2; N-terminus and C-terminus assumed), in the data set on E. coli RP437 biofilms [13], the “reduction of viable biofilm cell counts” value is given as “ineffective”. Also, in the data set on E. coli RP437 biofilms [14] (25 μg/mL), the “Total biofilm formation compared with blank control (ANOVA)” value is recorded as “significantly reduced”, the “Biofilm coefficients: Dead cells” value was 7.11% ± 1.93%, the “Biofilm coefficients: Live cells” value is recorded as 4.42% ± 2.30% and the “Biofilm coefficients: Total biofilms” value is reported as 11.16% ± 3.09%. In the data set on E. coli RP437 biofilms [14] (50 μg/mL), the “Total biofilm formation compared with blank control (ANOVA)” value is given as “significantly reduced”, the “Biofilm coefficients: Dead cells” value is on record as 5.05% ± 1.47%, the “Biofilm coefficients: Live cells” value was 2.32% ± 1.12% and the “Biofilm coefficients: Total biofilms” value is 7.06% ± 1.91%.

In the case of `CC[C@H](C)[C@H](N)C(=O)N[C@@H](CC(C)C)C(=O)N1CCC[C@H]1C(=O)N[C@@H](Cc1c[nH]c2ccccc12)C(=O)N[C@@H](CCCCN)C(=O)N[C@@H](Cc1c[nH]c2ccccc12)C(=O)N1CCC[C@H]1C(=O)N[C@@H](Cc1c[nH]c2ccccc12)C(=O)N[C@@H](Cc1c[nH]c2ccccc12)C(=O)N1CCC[C@H]1C(=O)N[C@@H](Cc1c[nH]c2ccccc12)C(=O)N[C@@H](CCCNC(=N)N)C(=O)N[C@@H](CCCNC(=N)N)C(N)=O` [Indolicidin, reference compound], in [4], the “mean MIC50 against all test organisms” value came to 3.6 µg/mL. For the same compound, in the data set on E. faecalis (29212), the “MIC50 E. faecalis” value stood at 1.6 µg/mL (≈ 0.839 µM). Besides, the “HD50 (peptide concentration corresponding to 50% hemolysis)” value with fresh sheep erythrocytes worked out at 293 µg/mL. In the data set on B. Subtilis (ATCC 6633), the “MIC50 B. subtilis” value came out at 1.0 µg/mL (≈ 0.525 µM). Moreover, the “MIC50 B. anthracis” value in data set [6] (32F2 Sterne) worked out at 8.2 µg/mL (≈ 4.3 µM). In addition, the “increase in MIC50 value from no salt to high-salt condition” value in data set [7] (E. coli and S. aureus, 0 to 150 mM NaCl) was above 100%.

Take `CN[C@H](CC(C)C)C(=O)N[C@H]1C(=O)N[C@@H](CC(N)=O)C(=O)N[C@H]2C(=O)N[C@H]3C(=O)N[C@H](C(=O)N[C@H](C(=O)O)c4cc(O)cc(O)c4-c4cc3ccc4O)[C@H](O)c3ccc(c(Cl)c3)Oc3cc2cc(c3O[C@@H]2O[C@H](CO)[C@@H](O)[C@H](O)[C@H]2O[C@H]2C[C@](C)(N)[C@H](O)[C@H](C)O2)Oc2ccc(cc2Cl)[C@H]1O` [vancomycin, reference compound]: the “membrane damage / killing by Live/Dead staining” value (in the data set with gram-positive MRSA; in [5]) was “did not actively kill” each time.
